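48-hour exposure; five concentrations; linearly interpolated endpoints. GI50 is the concentration that inhibits growth by half.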 Activity calls are given as the source filed them. No stated cut-off is given here; in the data, active = GI50 up to about 1.1 µM and inactive = higher.
Legend:
Experiment in all cases: growth of human tumour cells (NCI), 48 h
[1] = system: SK-MEL-2
[2] = system: KM-20L2
[3] = system: HT-29
[4] = system: NCI-H226
[5] = system: SNB-78
[6] = system: SF-268
[7] = system: EKVX
[8] = system: A549
[9] = system: HCC 2998
[10] = system: SW-620
[11] = system: SF-295
[12] = system: SK-MEL-5
[13] = system: OVCAR-5
[14] = system: MOLT-4
[15] = system: OVCAR-3
[16] = system: XF498
[17] = system: Malme-3M
[18] = system: ACHN
[19] = system: K562
[20] = system: CAKI-1
[21] = system: CCRF-CEM
[22] = system: TK-10
[23] = system: M19-MEL
[24] = system: DMS-273
[25] = system: DLD-1
[26] = system: LXFL 529
[27] = system: HOP-62
[28] = system: SK-MEL-28
[29] = system: OVCAR-8
[30] = system: UACC-62
[31] = system: SNB-19
[32] = system: UACC-257
[33] = system: HCT-116
[34] = system: SK-OV-3
[35] = system: NCI-H23
[36] = system: NCI-H460
[37] = system: M14
[38] = system: UO-31
[39] = system: DMS-114
[40] = system: SF-539
[41] = system: IGROV-1
[42] = system: OVCAR-4
[43] = system: 786-0
[44] = system: NCI-H522
[45] = system: RXF 393
[46] = system: A498
[47] = system: SNB-75
[48] = system: SN12C
[49] = system: RPMI-8226
[50] = system: LOX IMVI
[51] = system: RXF 631
[52] = system: HCT-15
[53] = system: HOP-18
[54] = system: KM12
[55] = system: HL-60
[56] = system: U-251
[57] = system: HOP-92
[58] = system: COLO 205
[59] = system: SR

COC(=O)c1nc(-c2ccc(Cl)c(Cl)c2)nc2ccccc12
GI50 [1]: 71.8 µM (inactive)
GI50 [2]: > 100 µM (inactive)
GI50 [3]: > 100 µM (inactive)
GI50 [4]: 13.7 µM (inactive)
GI50 [5]: 34.4 µM (inactive)
GI50 [6]: 6.81 µM (inactive)
GI50 [7]: > 100 µM (inactive)
GI50 [8]: 34.9 µM (inactive)
GI50 [9]: > 100 µM (inactive)
GI50 [10]: > 21 µM (inactive)
GI50 [11]: 12 µM (inactive)
GI50 [12]: > 35.8 µM (inactive)
GI50 [13]: > 100 µM (inactive)
GI50 [14]: > 100 µM (inactive)
GI50 [15]: 14.5 µM (inactive)
GI50 [16]: 6.81 µM (inactive)
GI50 [17]: > 100 µM (inactive)
GI50 [18]: 50.5 µM (inactive)
GI50 [19]: > 100 µM (inactive)
GI50 [20]: 44.3 µM (inactive)
GI50 [21]: > 100 µM (inactive)
GI50 [22]: 34.6 µM (inactive)
GI50 [23]: > 100 µM (inactive)
GI50 [24]: 26.2 µM (inactive)
GI50 [25]: > 25.2 µM (inactive)
GI50 [26]: > 27.1 µM (inactive)
GI50 [27]: 14.3 µM (inactive)
GI50 [28]: > 59.3 µM (inactive)
GI50 [29]: 14.5 µM (inactive)
GI50 [30]: > 27.7 µM (inactive)
GI50 [31]: 5.89 µM (inactive)
GI50 [32]: > 29.6 µM (inactive)
GI50 [33]: 13.1 µM (inactive)
GI50 [34]: 9.91 µM (inactive)
GI50 [35]: 57.9 µM (inactive)
GI50 [36]: > 34 µM (inactive)
GI50 [37]: > 24.1 µM (inactive)
GI50 [38]: 43.4 µM (inactive)
GI50 [39]: 19.8 µM (inactive)
GI50 [40]: 24.2 µM (inactive)
GI50 [41]: 48.9 µM (inactive)
GI50 [42]: 7.83 µM (inactive)
GI50 [43]: 21.6 µM (inactive)
GI50 [44]: > 100 µM (inactive)
GI50 [45]: 13.6 µM (inactive)
GI50 [46]: 27.4 µM (inactive)
GI50 [47]: 5.04 µM (inactive)
GI50 [48]: > 100 µM (inactive)
GI50 [49]: > 28.9 µM (inactive)
GI50 [50]: > 100 µM (inactive)
GI50 [51]: > 67.6 µM (inactive)
GI50 [52]: > 100 µM
GI50 [53]: 2.01 µM (inactive)
GI50 [54]: > 85.7 µM (inactive)
GI50 [55]: > 100 µM (inactive)
GI50 [56]: 21.2 µM (inactive)

CC(O)c1ccc[n+](Cc2ccccc2)c1 (centres undefined)
GI50 [1]: > 400 µM (inactive)
GI50 [2]: > 400 µM (inactive)
GI50 [57]: > 400 µM (inactive)
GI50 [3]: > 400 µM (inactive)
GI50 [58]: > 400 µM (inactive)
GI50 [4]: > 400 µM (inactive)
GI50 [6]: > 400 µM (inactive)
GI50 [7]: > 400 µM (inactive)
GI50 [8]: > 400 µM (inactive)
GI50 [9]: > 400 µM (inactive)
GI50 [10]: > 400 µM (inactive)
GI50 [11]: > 400 µM (inactive)
GI50 [12]: > 400 µM (inactive)
GI50 [13]: > 400 µM (inactive)
GI50 [14]: > 400 µM (inactive)
GI50 [15]: > 400 µM (inactive)
GI50 [16]: > 400 µM (inactive)
GI50 [17]: > 400 µM (inactive)
GI50 [18]: > 400 µM (inactive)
GI50 [19]: > 400 µM (inactive)
GI50 [20]: > 400 µM (inactive)
GI50 [21]: > 400 µM (inactive)
GI50 [22]: > 400 µM (inactive)
GI50 [23]: > 400 µM (inactive)
GI50 [24]: > 400 µM (inactive)
GI50 [25]: > 400 µM (inactive)
GI50 [26]: > 400 µM (inactive)
GI50 [27]: > 400 µM (inactive)
GI50 [28]: > 400 µM (inactive)
GI50 [29]: > 400 µM (inactive)
GI50 [30]: > 400 µM (inactive)
GI50 [31]: > 400 µM (inactive)
GI50 [32]: > 400 µM (inactive)
GI50 [33]: > 400 µM (inactive)
GI50 [34]: > 400 µM (inactive)
GI50 [35]: > 400 µM (inactive)
GI50 [36]: > 400 µM (inactive)
GI50 [39]: > 400 µM (inactive)
GI50 [40]: > 400 µM (inactive)
GI50 [41]: > 400 µM (inactive)
GI50 [43]: > 400 µM (inactive)
GI50 [44]: > 400 µM (inactive)
GI50 [45]: > 400 µM (inactive)
GI50 [59]: > 400 µM (inactive)
GI50 [48]: > 400 µM (inactive)
GI50 [49]: > 400 µM (inactive)
GI50 [50]: > 400 µM (inactive)
GI50 [51]: > 400 µM (inactive)
GI50 [52]: > 400 µM
GI50 [53]: > 400 µM (inactive)
GI50 [54]: > 400 µM (inactive)
GI50 [55]: > 400 µM (inactive)
GI50 [56]: > 400 µM (inactive)

Reference: ChEMBL document CHEMBL1201862, “PubChem BioAssay data set” (2004)
